Key:
[1] = xn = mol fraction of the nth substance listed; details: 101.3 kPa, Liquid
[2] = refractive index (Na D-line) (dimensionless); xn = mol fraction of the nth substance listed; details: 101.3 kPa, Liquid

CCOC(=O)c1ccccc1 [ethyl benzoate] + Cc1ccccc1C
Details	mass density, [1] [kg/m3]	refractive index, [2]	viscosity, [1] [mPa·s]
303.15 K, x1 = 0.0847	887.3	1.4994	0.758
303.15 K, x1 = 0.1749	904.2	1.4996	0.837
303.15 K, x1 = 0.2686	920.9	1.4999	0.909
303.15 K, x1 = 0.3579	937.5	1.5001	1
303.15 K, x1 = 0.4613	954	1.5007	1.085
303.15 K, x1 = 0.56	972.3	1.5009	1.19
303.15 K, x1 = 0.6668	988.1	1.501	1.312
303.15 K, x1 = 0.7675	1001.3	1.5011	1.433
303.15 K, x1 = 0.8768	1021.1	1.5013	1.566
313.15 K, x1 = 0.0847	879.3	1.4983	0.676
313.15 K, x1 = 0.1749	896.1	1.4986	0.732
313.15 K, x1 = 0.2686	913.1	1.4989	0.8
313.15 K, x1 = 0.3579	930.2	1.4993	0.864
313.15 K, x1 = 0.4613	945.7	1.4995	0.937
313.15 K, x1 = 0.56	963.8	1.4997	1.015
313.15 K, x1 = 0.6668	980.8	1.4999	1.113
313.15 K, x1 = 0.7675	992.7	1.5001	1.208
313.15 K, x1 = 0.8768	1010.9	1.5003	1.31

CCOC(=O)c1ccccc1 [ethyl benzoate] + Cc1ccc(C)cc1
Details	mass density, [1] [kg/m3]	refractive index, [2]	viscosity, [1] [mPa·s]
303.15 K, x1 = 0.0916	871.1	1.4931	0.622
303.15 K, x1 = 0.1757	889.3	1.4939	0.679
303.15 K, x1 = 0.2719	908.4	1.4951	0.765
303.15 K, x1 = 0.3616	925.3	1.4957	0.837
303.15 K, x1 = 0.4681	947.1	1.4965	0.951
303.15 K, x1 = 0.5703	964.8	1.497	1.045
303.15 K, x1 = 0.673	982.8	1.4983	1.181
303.15 K, x1 = 0.7781	1000.8	1.4988	1.325
303.15 K, x1 = 0.8651	1022.8	1.4995	1.469
303.15 K, x1 = 0.937	1040.8	1.5001	1.603
313.15 K, x1 = 0.0916	863	1.4912	0.55
313.15 K, x1 = 0.1757	880.9	1.4924	0.606
313.15 K, x1 = 0.2719	899.9	1.4948	0.686
313.15 K, x1 = 0.3616	917.3	1.495	0.739
313.15 K, x1 = 0.4681	937.5	1.4956	0.825
313.15 K, x1 = 0.5703	956	1.4963	0.9
313.15 K, x1 = 0.673	974	1.4972	1.008
313.15 K, x1 = 0.7781	993.2	1.4979	1.126
313.15 K, x1 = 0.8651	1010.2	1.4989	1.239
313.15 K, x1 = 0.937	1028.2	1.4996	1.339
